These results are taken from patent US20110230501A1, “PHARMACEUTICAL COMPOSITIONS FOR THE TREATMENT OF DIABETES MELLITUS” (IPCA Laboratories Ltd., priority 2008, published 2011).

Experiment [1] deals with alloxan induced diabetic rats. The experiment is described as follows: Alloxan induced diabetic rats: hydroxychloroquine with glimepiride. Particulars: nine days, HCQ 160 or GLM 8 mg/kg/day p.o. The format is in vivo, Wistar rats. As to the method:
Thirty Wistar rats weighing 150-200 g of either sex were divided into six groups consisting of five rats each. Experimental diabetes was induced in rats by injecting alloxan monohydrate intraperitonially at a dose of 90 mg/kg body weight. Rats with blood sugar level of 250-350 mg/dl, were considered as diabetic and employed in the study. Group 1 (normal control) consisted of normal rats that neither received alloxan monohydrate nor any drug. Group 2′ served as diabetic control which received vehicle orally. […] The study drugs were administered for nine days.

Experiment [2] relates to alloxan induced diabetic rats. Briefly: Alloxan induced diabetic rats: hydroxychloroquine with pioglitazone. The format is in vivo, Wistar rats. Particulars: nine days, HCQ 160 or PIO 10 mg/kg/day p.o. As to the method:
(§1) Thirty Wistar rats weighing 150-200 g of either sex were divided into six groups consisting of five rats each. Experimental diabetes was induced in rats by injecting alloxan monohydrate intraperitonially at a dose of 90 mg/kg body weight. Rats with blood sugar level of 250-350 mg/dl, were considered as diabetic and employed in the study. Group 1 (normal control) consisted of normal rats that neither received alloxan monohydrate nor any drug. Group 2 served as diabetic control which received vehicle orally. […] The study drugs were administered for nine days.

The test system of experiment [3] is alloxan induced diabetic rats. The experiment is described as follows: Alloxan induced diabetic rats: hydroxychloroquine with metformin. In kind it is in vivo, Wistar rats. The following applies: nine days, HCQ 160 or MET 500 mg/kg/day p.o. As to the method: as §1
The conditions of experiment [4]: cited from earlier work.
The conditions of experiment [5]: cited from earlier work. This is another data set of the same source.
In experiment [6] the test system is adults with rheumatoid arthritis. The following applies: cited from earlier work.
Experiment [7] relates to sulphonylurea-refractory patients with poorly controlled Type 2 diabetes. The following applies: cited from earlier work.
The mark [8] stands for this setting: patients treated with hydroxychloroquine.

Marks after values point to notes of the source that are not given here.

With `CCC1=C(C)CN(C(=O)NCCc2ccc(S(=O)(=O)NC(=O)N[C@H]3CC[C@H](C)CC3)cc2)C1=O` [GLM, glimepiride], in experiment [1], the “Blood Glucose (mg/dl) Final” value was found to be 157.2 ± 17.64 mg/dL, the “Body Weight (g) Final” value was found to be 170 ± 11.22 g, the “Alb. (Albumin)” value is recorded as 3.99 ± 0.24^a g/dl and the “Blood Glucose (% mean change)” value was “(−46.83)^d %”. Moreover, in experiment [1], the “Body Weight (% mean change)” value is recorded as “(−3.40)^c %”, the “HDL (High Density Lipoprotein)” value is recorded as 33 ± 1.58^b mg/dl, the “Hb (Hemoglobin)” value is 14.04 ± 1.90^b g/dl and the “Protein (T) (Total Protein)” value was 5.78 ± 1.22^b g/dl. Further, in experiment [1], the “TC (Total Cholesterol)” value is recorded as 169.40 ± 7.05^b mg/dl, the “TG (Triglyceride)” value is reported as 113.40 ± 3.64^b mg/dl and the Urea is recorded as 30.26 ± 0.86^b mg/dl.
As to `CCN(CCO)CCCC(C)Nc1ccnc2cc(Cl)ccc12` (centres unmarked) [HCQ, hydroxychloroquine], in experiment [2], the “Blood Glucose (mg/dl) Final” value stood at 263.80 ± 2.04 mg/dL, the “Body Weight (g) Final” value amounted to 151.60 ± 13.16 g, the “Alb. (Albumin)” value is on record as 4.03 ± 0.13^a g/dl and the “Blood Glucose (% mean change)” value is “(−10.81)^c %”. Also, in experiment [2], the “Body Weight (% mean change)” value is on record as “(−10.51)^b %”, the “HDL (High Density Lipoprotein)” value is 35.80 ± 2.28^b mg/dl, the “Hb (Hemoglobin)” value was 12.12 ± 1.27^a g/dl and the “TC (Total Cholesterol)” value is given as 178.40 ± 2.70^c mg/dl. For the same compound, in experiment [2], the “TG (Triglyceride)” value is listed as 117.20 ± 2.28^b mg/dl and the Urea is reported as 29.70 ± 1.37^b mg/dl. For the same compound, the “Blood Glucose (% mean change)” value in experiment [2] (listed as hydroxychloroquine) is given as −10.81%. For the same compound, in experiment [3], the “Blood Glucose (mg/dl) Final” value is 263.80 ± 2.04 mg/dL, the “Body Weight (g) Final” value stood at 151.60 ± 13.16 g, the “Alb. (Albumin)” value is 4.03 ± 0.13^a g/dl and the “Blood Glucose (% mean change)” value is given as “(−10.81)^c %”. For the same compound, in experiment [3], the “Body Weight (% mean change)” value is “(−10.51)^b %”, the “HDL (High Density Lipoprotein)” value is reported as 35.80 ± 2.28^b mg/dl, the “Hb (Hemoglobin)” value is 12.12 ± 1.27^a g/dl and the “TC (Total Cholesterol)” value was 178.40 ± 2.70^c mg/dl. Also, in experiment [3], the “TG (Triglyceride)” value is 117.20 ± 2.28^b mg/dl and the Urea is 29.70 ± 1.37^b mg/dl. The “Blood Glucose (% mean change)” value in experiment [3] (listed as hydroxychloroquine) was −10.81%. Besides, in experiment [4] (irrespective of concomitant steroid administration), the “serum levels of cholesterol, triglycerides, and LDL” value is listed as “high statistical association with low serum levels”. For the same compound, in experiment [4] (setting [8]), the “HDL and % HDL” value is “rise”; the “decrease in serum levels of cholesterol” value is on record as “approximately 10%”. Further, the “red blood cell aggregation” value in experiment [5] (humans, without prolonging the bleeding time) is “reduction”. Also, the “plasma viscosity as well as whole blood viscosity” value in experiment [5] (postoperative patients) is “significant reduction”. In experiment [1], the “Blood Glucose (mg/dl) Final” value amounted to 263.80 ± 2.04 mg/dL, the “Body Weight (g) Final” value came out at 151.60 ± 13.16 g, the “Alb. (Albumin)” value is given as 4.03 ± 0.13^a g/dl and the “Blood Glucose (% mean change)” value is “(−10.81)^c %”. In experiment [1], the “Body Weight (% mean change)” value was “(−10.51)^b %”, the “HDL (High Density Lipoprotein)” value was 35.80 ± 2.28^b mg/dl, the “Hb (Hemoglobin)” value is 12.12 ± 1.27^a g/dl and the “TC (Total Cholesterol)” value was 178.40 ± 2.70^c mg/dl. In experiment [1], the “TG (Triglyceride)” value is given as 117.20 ± 2.28^b mg/dl and the Urea is reported as 29.70 ± 1.37^b mg/dl. In experiment [1] (listed as hydroxychloroquine), the “Blood Glucose (% mean change)” value was −10.81%. The risk of diabetes result in experiment [6] is “reduced risk of diabetes”. The glycemic control entry in experiment [7] is listed as “improved glycemic control”.
For `CN(C)C(=N)N=C(N)N` [MET, metformin], in experiment [3], the “Blood Glucose (mg/dl) Final” value was 148.8 ± 17.35 mg/dL, the “Body Weight (g) Final” value came to 173.8 ± 7.19 g, the “Alb. (Albumin)” value is 4.52 ± 1.12^a g/dl and the “Blood Glucose (% mean change)” value was “(−47.58)^d %”. Further, in experiment [3], the “Body Weight (% mean change)” value was “(−10.51) c %”, the “HDL (High Density Lipoprotein)” value is listed as 34.40 ± 2.51^b mg/dl, the “Hb (Hemoglobin)” value was 12.80 ± 1.25^b g/dl and the “Protein (T) (Total Protein)” value is 6.75 ± 0.80^b g/dl. In experiment [3], the “TC (Total Cholesterol)” value is 170.40 ± 5.90^b mg/dl, the “TG (Triglyceride)” value is on record as 111.20 ± 5.93^b mg/dl and the Urea is 31.49 ± 1.81^b mg/dl. Also, the “Blood Glucose (% mean change)” value in experiment [3] (listed as Metformin) was 47.58%.
Regarding `CCc1ccc(CCOc2ccc(CC3SC(=O)NC3=O)cc2)nc1` (centres unmarked) [PIO, pioglitazone], in experiment [2], the “Blood Glucose (mg/dl) Final” value was 175.8 ± 5.48 mg/dL, the “Body Weight (g) Final” value is listed as 159.20 ± 11.21 g, the “Alb. (Albumin)” value is given as 4.03 ± 0.14^a g/dl and the “Blood Glucose (% mean change)” value was “(−41.92)^a %”. In addition, in experiment [2], the “Body Weight (% mean change)” value was “(−6.07)^a %”, the “HDL (High Density Lipoprotein)” value is listed as 35.8 ± 2.28^b mg/dl, the “Hb (Hemoglobin)” value was 12.12 ± 1.27^b g/dl and the “Protein (T) (Total Protein)” value is reported as 6.06 ± 1.43^b g/dl. Further, in experiment [2], the “TC (Total Cholesterol)” value is recorded as 178.4 ± 2.70^b mg/dl, the “TG (Triglyceride)” value was 117.2 ± 2.28^b mg/dl and the Urea is listed as 29.69 ± 1.37^b mg/dl.
